The record followed here is PMC8917853, “Synthesis and evaluation of ^99mTc-DOTA-ARA-290 as potential SPECT tracer for targeting cardiac ischemic region” (Iranian Journal of Basic Medical Sciences, 2021).

The structures appear in SMILES notation. Residues, ends and D or L forms follow the SMILES beside them. *: point of attachment. DOTA = O=C(O)CN1CCN(CC(=O)O)CCN(CC(=O)*)CCN(CC(=O)O)CC1; X1 = CN(C)c1ccc(/N=N/c2ccc(C(=O)*)cc2)cc1

Data set [1] addresses T1, EPOR-BcR receptor on H9c2 myocardial cells (Rattus norvegicus, UniProt Q07303+Q78ZF5).
T1 construct: endogenous in cells; host or cells: H9c2 myocardial cells (hypoxic vs normoxic culture)
T1 sequence (Q07303 25-507): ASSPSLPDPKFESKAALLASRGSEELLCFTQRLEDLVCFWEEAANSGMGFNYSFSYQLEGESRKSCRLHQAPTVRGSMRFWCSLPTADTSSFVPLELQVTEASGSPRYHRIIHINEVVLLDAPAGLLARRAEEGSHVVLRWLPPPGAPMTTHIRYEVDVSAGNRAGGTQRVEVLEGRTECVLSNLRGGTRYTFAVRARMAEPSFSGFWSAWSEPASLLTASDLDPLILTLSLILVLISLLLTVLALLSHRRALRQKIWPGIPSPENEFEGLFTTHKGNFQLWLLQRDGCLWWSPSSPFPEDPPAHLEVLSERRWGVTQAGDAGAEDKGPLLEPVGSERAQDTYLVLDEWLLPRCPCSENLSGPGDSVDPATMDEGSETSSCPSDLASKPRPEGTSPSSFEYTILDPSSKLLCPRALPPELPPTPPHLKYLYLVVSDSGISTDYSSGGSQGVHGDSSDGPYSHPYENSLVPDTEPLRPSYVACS
T1 sequence (Q78ZF5 29-896): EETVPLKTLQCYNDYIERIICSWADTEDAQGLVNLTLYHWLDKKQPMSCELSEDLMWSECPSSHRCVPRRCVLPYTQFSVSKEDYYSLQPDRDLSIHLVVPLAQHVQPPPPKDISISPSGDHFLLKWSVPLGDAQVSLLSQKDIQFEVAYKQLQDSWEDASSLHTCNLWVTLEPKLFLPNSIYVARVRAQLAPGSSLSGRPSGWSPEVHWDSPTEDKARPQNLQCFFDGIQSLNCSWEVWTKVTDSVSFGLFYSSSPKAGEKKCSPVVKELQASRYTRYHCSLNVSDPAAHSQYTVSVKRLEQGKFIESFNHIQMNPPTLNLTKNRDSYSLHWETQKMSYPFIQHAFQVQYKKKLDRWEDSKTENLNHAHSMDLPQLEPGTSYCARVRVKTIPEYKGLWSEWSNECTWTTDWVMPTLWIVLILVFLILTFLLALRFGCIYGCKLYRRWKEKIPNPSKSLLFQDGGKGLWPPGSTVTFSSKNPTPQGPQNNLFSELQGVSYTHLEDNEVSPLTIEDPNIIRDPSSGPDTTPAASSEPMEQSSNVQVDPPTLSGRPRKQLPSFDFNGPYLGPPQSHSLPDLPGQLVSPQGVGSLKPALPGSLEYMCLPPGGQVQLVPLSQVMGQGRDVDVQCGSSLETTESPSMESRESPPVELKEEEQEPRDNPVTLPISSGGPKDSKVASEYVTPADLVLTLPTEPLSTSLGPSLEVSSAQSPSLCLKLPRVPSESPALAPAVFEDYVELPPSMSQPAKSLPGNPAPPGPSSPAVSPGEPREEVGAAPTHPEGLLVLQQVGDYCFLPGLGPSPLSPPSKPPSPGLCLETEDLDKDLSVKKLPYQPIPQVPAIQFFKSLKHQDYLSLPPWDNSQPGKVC
The experiment in a line: In vitro hypoxia test: binding to hypoxic vs normoxic H9c2 myocardial cells. Type of data set: cell-based. The settings on record: for binding to hypoxic cells relative to normoxic cells: H9c2 cells, 250 pmol radiopeptide, 37 °C, triplicate. Here is the method:
H9c2 myocardial cells were separated into three groups. The normoxic control group (negative EPOR-BcR receptor) was cultured in a normoxic (20% O2) culture medium. Hypoxic group (positive EPOR-BcR receptor) was cultured in a different time interval (1-4 hr) hypoxic culture condition (5% CO2 and 2% O2) and blocking test (specific binding assay) in the hypoxic condition. […] The cells for triplicate were placed inside confocal plates (Costar) at a density of 1 × 10^5 per well, then treated with almost 250 pmol of ^99mTc-DOTA-(Lys-Dabcyl^6,Phe^7)-ARA-290 subject to 0.025 MBq at 37 °C. Incubation was disrupted with 1 ml of chilled PBS. Afterward, the cells were separated by […] to measure the cell-bound level of ^99mTc-DOTA-(Lys-Dabcyl^6,Phe^7)-ARA-290 by a scintillator. EPOR-BcR receptor blocking was done by using 50-fold extra of the unlabeled peptide in 30 min before the injection of the labeled peptide.

Data set [2] is described as follows: in vitro. The settings on record: human, fresh human serum. Here is the method: As an in vitro stability evaluation, radiolabeled peptides (specific activity= 18.5 MBq/nmol) were added to sodium chloride 0.9 % isotonic solution ([24]). After incubation at ambient temperature, samples were taken out at 0.06, 0.5, 1, 2, 4, and 6 hr. The radiochemical purity of the mixture was investigated by a TLC stripe. To survey biostability, 100 μl of the labeled compound was added to fresh human serum (1 ml) and incubated (37 °C, 5% CO2) at different time points (4, 30, 60, 120, 240, and 360 min). 100 μl aliquots of serum samples were then incubated with 100 μl of ethanol. Samples were centrifuged at 5000 rpm for 5 min at 37 °C and 20 µl supernatant was removed to assess the degradation of ^99mTc labeled peptide by TLC.

Data set [3] relates to cardiac ischemic region. Briefly: Planar SPECT scintigraphy in ischemic and normal rats. The settings on record: 200 MBq. In kind it is in vivo, rat. As to the method:
30 and 90 min post-injection of ^99mTc-DOTA-(Lys-Dabcyl^6,Phe^7)-ARA-290 (200 MBq) into ischemic and normal rats, planar images were captured by a dual-head SPECT system (E.cam, Siemens, Germany) that was arranged with low energy high-resolution collimators, a 128*128 matrix size, and a 20% energy window set at 140 keV ([29]).

Turning to `CC(C)C[C@H](NC(=O)[C@H](Cc1ccccc1)NC(=O)[C@H](CCCCNC(=O)c1ccc(/N=N/c2ccc(N(C)C)cc2)cc1)NC(=O)[C@H](CCC(=O)O)NC(=O)[C@H](CC(C)C)NC(=O)[C@H](CCC(N)=O)NC(=O)[C@H](CCC(=O)O)NC(=O)[C@H](CCC(=O)O)NC(=O)CN1CCN(CC(=O)O)CCN(CC(=O)O)CCN(CC(=O)O)CC1)C(=O)N[C@@H](CC(N)=O)C(=O)N[C@@H](CO)C(=O)N[C@@H](CO)C(=O)O` [99mTc-DOTA-(Lys-Dabcyl6,Phe7)-ARA-290, metal not drawn] ({DOTA}-EEQLEK(X1)FLNSS-OH; C-terminus assumed), the “binding to hypoxic cells relative to normoxic cells” value in data set [1] (hypoxia 2% O2 vs normoxia 20% O2, 1 hr) came out at 3 fold. For the same compound, the “binding to hypoxic cells relative to normoxic cells” value in data set [1] (hypoxia 2% O2 vs normoxia 20% O2, 4 hr) was roughly 5 fold. For the same compound, in data set [1] (hypoxic H9c2 cells, 50 mol excess of unlabeled peptide 30 min before radiopeptide), the “binding to hypoxic cells in blocking test” value is recorded as “the same result was obtained for the normoxic cells”. For the same compound, the “binding affinity to H9c2 cells under normoxic situations” value in data set [1] (normoxic 20% O2, H9c2 cells) is listed as “very low”. In data set [2], this compound registered an amount remaining at 4 h of 94% and a share remaining at 6 h of 93%. The “scintigraphy: ischemic region uptake” value in data set [3] (cardiac ischemic rats, planar images at 30 and 90 min post-injection) was “considerable ischemic region uptake”. In data set [3] (normal rat, 30 min post-injection), the “scintigraphy: cardiac accumulation” value is “not detectable”.
